This is an account of results in ChEMBL document CHEMBL1201862, “PubChem BioAssay data set” (2004).

Active and inactive are the calls of the source.

The target in one assay is T1, Leucine aminopeptidase (Plasmodium falciparum 3D7, UniProt Q8IL11).
T1 sequence (Q8IL11 whole entry): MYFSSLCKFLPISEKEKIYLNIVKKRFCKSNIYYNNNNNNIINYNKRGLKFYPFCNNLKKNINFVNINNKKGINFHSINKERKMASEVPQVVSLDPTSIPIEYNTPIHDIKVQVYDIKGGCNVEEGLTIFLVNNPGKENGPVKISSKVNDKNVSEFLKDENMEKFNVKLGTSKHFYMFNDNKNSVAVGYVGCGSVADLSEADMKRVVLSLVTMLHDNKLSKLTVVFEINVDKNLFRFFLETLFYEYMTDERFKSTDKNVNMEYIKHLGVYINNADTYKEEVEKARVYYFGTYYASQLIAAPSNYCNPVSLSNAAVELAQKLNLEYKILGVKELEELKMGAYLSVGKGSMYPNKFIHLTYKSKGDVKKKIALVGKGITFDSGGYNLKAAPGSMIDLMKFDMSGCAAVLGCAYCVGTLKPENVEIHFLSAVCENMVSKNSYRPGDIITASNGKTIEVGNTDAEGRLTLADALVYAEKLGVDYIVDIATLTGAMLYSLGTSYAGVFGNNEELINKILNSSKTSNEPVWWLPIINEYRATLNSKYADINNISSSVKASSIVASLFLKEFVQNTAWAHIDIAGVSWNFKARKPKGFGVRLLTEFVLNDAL
Kind of assay: P. falciparum M17LAP inhibitors, primary screen, biochemical, fluorogenic H-Leu-NHMec substrate, 1536-well (AID 1619). The assay is classed as functional.

Assay [1] in a line: microbe, parasite or virus in culture. The assay is classed as functional. To be noted: Mycobacterium tuberculosis.
Assay [2] can be described thus: cytotoxicity toward NIH3T3 fibroblasts, dose response, counter-screen, cell-based, ATP luminescence, mouse fibroblasts (AID 2010).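 Further: cells exposed to compound for about 90 hours before reading.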 The assay is classed as functional.
A short description of assay [3]: inhibitors of intracellular T. cruzi replication, confirmation, NIH3T3 host cells, beta-gal luminescence (AID 2044).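 Further: intracellular parasites grown in NIH/3T3 mouse fibroblasts as host cells; luminescent beta-galactosidase reporter signal from transgenic T. cruzi replicating inside host cells; inhibitors lower the luminescence signal.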 The assay is classed as functional, cell-based.
Assay [4] is described as follows: cells. The assay is classed as functional, cell-based.
The nature of assay [5]: cells. The assay is classed as functional, cell-based. The source holds these as a separate data set.
The target of a further assay is Cytochrome P450 3A4 (Homo sapiens, UniProt P08684).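 Further: CYP3A4 tested as one member of a cytochrome P450 panel screen.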
Assay [6] concerns the target T2, Corticotropin-releasing factor receptor 2/Corticotropin-releasing factor-binding protein (Homo sapiens, UniProt P24387+Q13324).
T2 sequence (Q13324 whole entry): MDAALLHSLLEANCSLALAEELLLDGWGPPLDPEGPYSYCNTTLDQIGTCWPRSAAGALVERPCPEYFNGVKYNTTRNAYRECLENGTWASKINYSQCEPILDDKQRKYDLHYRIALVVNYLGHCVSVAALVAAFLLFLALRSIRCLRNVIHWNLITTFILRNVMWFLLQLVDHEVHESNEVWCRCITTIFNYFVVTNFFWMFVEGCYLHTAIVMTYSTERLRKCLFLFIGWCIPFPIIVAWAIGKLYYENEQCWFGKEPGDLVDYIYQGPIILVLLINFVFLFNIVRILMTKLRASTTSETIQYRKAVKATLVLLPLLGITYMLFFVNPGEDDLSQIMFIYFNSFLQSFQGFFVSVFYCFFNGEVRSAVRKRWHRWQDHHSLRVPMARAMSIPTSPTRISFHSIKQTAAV
T2 sequence (P24387 whole entry): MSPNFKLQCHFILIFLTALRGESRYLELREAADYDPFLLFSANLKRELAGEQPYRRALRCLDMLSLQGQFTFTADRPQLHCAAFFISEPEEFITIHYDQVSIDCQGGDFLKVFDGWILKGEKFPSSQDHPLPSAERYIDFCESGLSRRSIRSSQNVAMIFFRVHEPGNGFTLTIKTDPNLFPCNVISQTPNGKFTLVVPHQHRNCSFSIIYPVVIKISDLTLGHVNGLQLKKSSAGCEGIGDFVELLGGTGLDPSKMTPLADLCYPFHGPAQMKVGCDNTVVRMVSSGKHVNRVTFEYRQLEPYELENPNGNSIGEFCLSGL
Nature of the assay: activators of CRF receptor 2 with binding protein – uHTS hits, confirmation (AID 602473). The assay is classed as functional. The following applies: read-out: EC50_Mean.

The target in assay [7] is T2, Corticotropin-releasing factor receptor 2/Corticotropin-releasing factor-binding protein. Nature of the assay: Dose Response confirmation of uHTS hits for small molecule antagonists of the CRF-binding protein and CRF-R2 receptor complex. The assay is classed as functional. To be noted: read-out: IC50_Mean.
A short description of assay [8]: cells. The assay is classed as functional.
The nature of assay [9]: control 3'UTR Renilla luciferase suppression, dose response, counter-screen for Shn3 inhibitor project, cell-based, Clone20-Shn3RL, cherry-picked (AID 624133). The assay is classed as functional. (In general: A counterscreen serves to expose hits that act by an unwanted route or on another target.)
Assay [10] in a line: Shn3 3'UTR reporter inhibitors, dose response, cell-based, Clone20 osteoblasts, firefly luciferase, cherry-picked (AID 624132).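 Further: firefly luciferase luminescence from reporter carrying the Shn3 3'UTR in osteoblasts.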 The assay is classed as functional.
Assay [11] deals with T3, Heat shock factor protein 1 (Mus musculus, UniProt P38532).
T3 sequence (P38532 whole entry): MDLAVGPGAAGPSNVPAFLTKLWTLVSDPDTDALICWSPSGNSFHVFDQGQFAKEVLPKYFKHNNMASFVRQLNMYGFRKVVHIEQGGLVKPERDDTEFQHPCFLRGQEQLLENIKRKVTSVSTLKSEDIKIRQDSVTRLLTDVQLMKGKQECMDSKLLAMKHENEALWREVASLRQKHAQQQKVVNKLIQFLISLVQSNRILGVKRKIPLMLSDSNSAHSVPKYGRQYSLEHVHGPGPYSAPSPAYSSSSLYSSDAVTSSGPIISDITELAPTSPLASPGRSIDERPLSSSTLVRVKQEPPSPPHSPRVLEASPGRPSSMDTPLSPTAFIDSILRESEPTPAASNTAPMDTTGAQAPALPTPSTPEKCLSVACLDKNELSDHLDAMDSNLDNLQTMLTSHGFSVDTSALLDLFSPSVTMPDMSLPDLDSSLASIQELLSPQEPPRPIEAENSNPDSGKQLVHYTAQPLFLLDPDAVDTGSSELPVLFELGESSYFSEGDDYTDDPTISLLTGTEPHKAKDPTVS
Kind of assay: HSF1 potentiators in luciferase reporter cells, confirmation, cell-based, NIH3T3, luminescence, dose retest (AID 435004).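 Further: stress induced by proteasome inhibitor MG132 added 30 min after compound; luciferase reporter driven by HSF1 response element in NIH3T3 cells; actives raise luminescence as potentiators of the MG132 stress response.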 The assay is classed as functional. (In general: Reporter assays use an easily measured gene product as a stand-in for the process of interest.)

Assay [12] deals with T4, Calpain-2 catalytic subunit (Sus scrofa, UniProt P43367).
T4 sequence (P43367 whole entry): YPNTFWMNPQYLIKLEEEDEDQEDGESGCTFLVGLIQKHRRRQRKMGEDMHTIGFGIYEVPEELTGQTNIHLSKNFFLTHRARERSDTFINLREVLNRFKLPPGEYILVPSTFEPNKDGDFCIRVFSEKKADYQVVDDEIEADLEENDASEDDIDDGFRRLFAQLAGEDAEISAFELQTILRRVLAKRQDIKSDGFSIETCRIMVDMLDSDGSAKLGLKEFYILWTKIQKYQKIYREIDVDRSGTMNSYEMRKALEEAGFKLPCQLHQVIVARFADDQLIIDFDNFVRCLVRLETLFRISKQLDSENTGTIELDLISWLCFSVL
Kind of assay: pig calpain II inhibitor potency, dose response, biochemical, fluorogenic peptide substrate (AID 1420). The assay is classed as functional.

As usually defined, the AC50 is the concentration giving half of the maximal activity seen.

Sequence of Cytochrome P450 3A4 (P08684 whole entry): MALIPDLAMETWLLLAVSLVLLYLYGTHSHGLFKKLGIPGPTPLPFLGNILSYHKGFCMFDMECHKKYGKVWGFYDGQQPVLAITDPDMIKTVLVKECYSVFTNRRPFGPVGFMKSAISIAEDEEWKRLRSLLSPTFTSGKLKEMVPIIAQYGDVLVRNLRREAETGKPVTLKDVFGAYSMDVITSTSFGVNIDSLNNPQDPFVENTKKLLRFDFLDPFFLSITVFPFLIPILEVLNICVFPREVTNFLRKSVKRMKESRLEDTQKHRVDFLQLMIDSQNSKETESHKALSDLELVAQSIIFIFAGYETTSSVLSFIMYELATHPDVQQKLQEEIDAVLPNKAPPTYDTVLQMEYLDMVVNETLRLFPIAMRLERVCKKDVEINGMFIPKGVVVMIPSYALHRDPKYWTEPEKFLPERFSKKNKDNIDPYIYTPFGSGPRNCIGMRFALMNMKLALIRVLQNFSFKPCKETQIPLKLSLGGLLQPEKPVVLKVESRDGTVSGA

With `O=C(CSc1nc[nH]n1)N1N=C2/C(=C/c3ccco3)CCCC2C1c1ccco1` (centres undefined), the IC50 at Leucine aminopeptidase is 2.11 µM (active).

As to `Cc1ccc(OCCCCNC2CCCC(C)C2C)c(C)c1` (centres undefined), in [1], the CC50 was > 40 µM (active). For the same compound, the EC50 in assay [2] is > 60 µM (not active); in assay [3], 0.778 µM (active).

`CCCn1c(=N)c(C(=O)NCc2ccc3c(c2)OCO3)cc2c(=O)n3cccc(C)c3nc21`: the CC50 in assay [1] was 33.9 µM (active). The EC50 was > 30 µM (not active) in [2] and 1.67 µM (active) in [3].

Regarding `Cn1c(SCC(=O)c2ccccc2)nnc1-c1ccco1`, the EC50 was > 350 µM (not active) in “cells [4]” and 57.5 µM (active) in “cells [5]”.

Consider `Cc1ccc(S(=O)(=O)NC(=O)CSc2nc3ccccc3s2)cc1`, for which the concentration at half-maximal activity (AC50) at Cytochrome P450 3A4 was 14.1 µM (inconclusive). For the same compound, at Leucine aminopeptidase, the IC50 was 7.77 µM (active).

Take `CCC(=O)n1nc(NCc2ccc(OC)c(OC)c2)nc1NCc1ccc(OC)c(OC)c1`: the EC50 in the assay “cells [4]” and in the assay “cells [5]” was > 350 µM (not active) each time.

Regarding `CC(C)Cn1nc2c3c(ccc2c1O)C(=O)c1ccccc1C3=O`, in [1], the CC50 was 16.4 µM (active).

As to `O=C(NCCc1c[nH]c2ccccc12)OCCSS(=O)(=O)O`, the IC50 at Leucine aminopeptidase is 21.8 µM (active).

Take `COc1ccccc1NC(=O)CSc1nc[nH]n1`: the IC50 at Leucine aminopeptidase is 36.8 µM (active).

`CN(C(=O)COC(=O)c1ccc(F)c(S(=O)(=O)N2CCOCC2)c1)C1CCS(=O)(=O)C1` (centres undefined): the EC50 in “cells [4]” and in the assay “cells [5]” was > 350 µM (not active) throughout.

As to `CC(=O)c1cccc(NC(=O)CN(C)S(=O)(=O)c2cccc3nsnc23)c1`, the EC50 in the assay “cells [4]” and in “cells [5]” was > 350 µM (not active) in each case.

Regarding `COc1ccc(CCNC(=O)c2cccn2C)cc1`, in assay [6], the EC50 was > 53 µM (inactive). In addition, in assay [7], the IC50 was > 47.1 µM (inactive).

For `COC(=O)CN1C(=O)COc2ccc(S(=O)(=O)NCc3ccc(Cl)cc3)cc21`, the EC50 in assay [6] is > 53 µM (inactive). In assay [7], the IC50 was > 47.1 µM (inactive).

For `COc1ccc(/C=N/NS(=O)(=O)c2ccccc2)cc1OC(=O)c1ccc(C)cc1`, the EC50 in assay [6] is > 53 µM (inactive). Further, in assay [7], the IC50 is > 47.1 µM (inactive).

Take `CCN(CC)CCN/C(C)=C1\C(=O)NC(=O)N(c2ccccc2OC)C1=O`: the EC50 in assay [6] was > 53 µM (inactive). In addition, the IC50 in assay [7] is > 47.1 µM (inactive).

For `Cc1ccc(NC(=O)CCn2cc(C(F)(F)F)ccc2=O)cc1`, the EC50 in [6] was > 53 µM (inactive). The IC50 in assay [7] is > 47.1 µM (inactive).

As for `N#Cc1ccc(COC(=O)CCc2c[nH]c3ccccc23)cc1`, the IC50 in the assay “cells [8]” is 1.68 µM (active).

With `CCOc1ccc(NC(=O)C2CC(C)=C(C)CC2C(=O)O)cc1` (centres undefined), the IC50 on Leucine aminopeptidase is 21.3 µM (active).

For the compound `CSc1ccc(C(=O)C2CCCN(Cc3cc4ccccc4[nH]3)C2)cc1` (centres undefined), in “cells [8]”, the IC50 was 13.2 µM (active).

As for `FC(F)(F)c1ccc2c(c1)NP(=S)(N1CCOCC1)c1nccn1-2` (centres undefined), the EC50 in the assay “cells [4]” and in “cells [5]” was > 350 µM (not active) throughout.

As to `Cc1ccc2[nH]c(=O)c(=NNc3ccccc3)cnc2c1`, the CC50 in [1] was > 40 µM (active).

Turning to `CCCOC(=O)NC1C(NC(=O)OCCC)N(C)C(=O)N1C` (centres undefined), the EC50 in “cells [4]” and in “cells [5]” was > 350 µM (not active) each time.

As for `CCCC(=O)NC(=S)Nc1ccc(N2CCN(C(=O)c3cccs3)CC2)cc1`, the results for the concentration at half-maximal activity (AC50) in assay [9] and in assay [10] were 10.7 µM (active) and 10.1 µM (active), respectively.

In the case of `S=C(NCc1ccco1)N/N=C/c1ccc(Cl)cc1`, the EC50 in assay [11] was > 260 µM (inactive). The IC50 in assay [12] is reported as 6.94 µM (not active).

For `CC(=O)N1CCN(S(=O)(=O)c2cccc(C(=O)NCc3ccc(F)cc3)c2)CC1`, the EC50 in assay [6] is > 53 µM (inactive). Also, the IC50 in assay [7] is > 47.1 µM (inactive).

As to `O=C(Nc1ccc(C(=O)O)cc1)Nc1cccc([N+](=O)[O-])c1`, the IC50 on Leucine aminopeptidase was 16.1 µM (active).

For `C=CCn1c(SCC(=O)c2ccc(NS(=O)(=O)c3ccccc3)cc2)nnc1-c1cccs1`, the IC50 at Leucine aminopeptidase was 14.7 µM (active).

Turning to `OC(CN1C2=NCCN2c2ccccc21)c1ccc2c(c1)OCO2` (centres undefined), in assay [6], the EC50 is > 53 µM (inactive). In addition, the IC50 in assay [7] is > 47.1 µM (inactive).

Turning to `COc1ccc(NC(=O)CN2C(=O)C(C)SC(C)C2=O)cc1` (centres undefined), the IC50 on Leucine aminopeptidase is 12.2 µM (active).
